Data taken from patent publication US9801388B2, “Method for a pesticide having an insecticide, acaricide and nematicide action based on isoquinoline alkaloids and flavonoids” (PROMOTORA TECNICA INDUSTRIAL, S.A. DE C.V., priority 2011, dated 2017).

Columns and labels:
[1] = tested on: insects of the genus Bemisia; assay: In vitro (laboratory) evaluation of effectiveness against Bemisia; format: in vivo; details: dose 2 mL/L (recommended by the manufacturer), 24 hours after application
Experimental: In the laboratory assay both products were diluted to 5 mL of the formulation in 1 L of distilled water, and they were applied against insects of the genus Bemisia. To compare the effectiveness of the formulation distilled water was also applied as an absolute control and bifenthrin ([1a,3a-(Z)]-(±)-(2methyl[1,1′-biphenyl]-3-il)methyl-3-(2-cloro-3,3,3-trifluorine-1-propenyl-2,2-dimethyl cyclopropanecarboxylate) was applied as a commercial control. The application of the formulation was performed in laboratory conditions using devices to keep the specimens under observation. The effectiveness evaluation was carried out 24 hours after the application.
The experimental unit consisted of four devices that were kept at 26 (±2° C.). Three repetitions of each evaluation were performed.
In Table VI, the effectiveness observed in insects of the genus Bemisia after 24 hours of observation with each of the treatments is detailed. The dose of the commercial control (Bifenthrin) was that recommended by the manufacturer.

[2] = tested on: nematodes of the genus Meloidogyne; assay: In vitro evaluation of effectiveness against Meloidogyne nematodes; format: in vivo; details: dilution 1:200, after 48 hours
Experimental: The nematicide capacity of formulation 2 was evaluated; a satisfactory percentage after 48 hours was obtained.

Diaphorina sp nymphs = assay: Field evaluation of effectiveness against Diaphorina sp nymphs in Citrus sp. crop; format: in vivo; details: dose 5 mL/L
Experimental: (§1) In accordance with the effectiveness percentages mentioned above, both of the developed products show a significant effectiveness to control insects belonging to the genus Bemisia. The evaluation was carried out four days after the application. The formulations were also applied to observe their effectiveness in the crop of Citrus sp. in controlling two pest species: Diaphorina sp. (adult and nymph) and mites of the genus Polyphagotarsonemus.
(§2) Table III describes the effectiveness of the above mentioned treatments in controlling Diaphorina sp. nymphs.

Diaphorina sp adults = assay: Field evaluation of effectiveness against Diaphorina sp adults in Citrus sp. crop; format: in vivo; details: dose 5 mL/L
Experimental: as §1, §2

humans = details: toxic for humans; cited from earlier work
mammals = details: toxic for mammals; cited from earlier work
larvae of genus Plutella = assay: Field evaluation of effectiveness against Plutella larvae in Brassica oleracea crop; format: in vivo; details: dose 100 mL/Ha, fourth day after application
Experimental: With the Brassica oleracea crop assessments of the control of larvae of the Plutella genus was performed, the results of this assessment are shown in Table V. The assessment was carried out the fourth day after the application.

Question: With `Cc1c(COC(=O)[C@@H]2[C@H](/C=C(\Cl)C(F)(F)F)C2(C)C)cccc1-c1ccccc1` (racemic) [Bifenthrin, [1a,3a-(Z)]-(±)-(2methyl[1,1′-biphenyl]-3-il)methyl-3-(2-cloro-3,3,3-trifluorine-1-propenyl-2,2-dimethyl cyclopropanecarboxylate] as the compound, how does the Effectiveness % [1] read?
Answer: 97.18%

Question: With `CNC(=O)Oc1cccc2c1OC(C)(C)C2` [Carbofuran] as the compound, how does the Effectiveness % [2] read?
Answer: 100%

Question: Which Effectiveness % (Diaphorina sp nymphs) does the source give for `CNC(=O)CSP(=S)(OC)OC` [Dimethoate] here?
Answer: 100%

Question: What about the Effectiveness % (Diaphorina sp adults) of the same compound?
Answer: 100%

Question: For `C=C(C)[C@H]1Cc2c(ccc3c2O[C@@H]2COc4cc(OC)c(OC)cc4[C@@H]2C3=O)O1` [Rotenone], which DL50 (humans) is on record?
Answer: 132 mg/kg

Question: With `C/C=C(/C)C(=O)O[C@H]1CC[C@@]2(C)[C@@H]3CC[C@H]4[C@]5(O)C[C@H](O)[C@@]6(O)[C@@H](CN7C[C@@H](C)CC[C@H]7[C@@]6(C)O)[C@]5(O)C[C@@]42O[C@]13O` [cevadine] as the compound, how does the DL50 (mammals) read?
Answer: 13 mg/kg

Question: For `COc1ccc(C(=O)O[C@H]2CC[C@@]3(C)[C@@H]4CC[C@H]5[C@]6(O)C[C@H](O)[C@@]7(O)[C@@H](CN8C[C@@H](C)CC[C@H]8[C@@]7(C)O)[C@]6(O)C[C@@]53O[C@]24O)cc1OC` [veratridine], which DL50 (mammals) is on record?
Answer: 13 mg/kg

Question: Which Effectiveness % (larvae of genus Plutella) does the source give for Spinosad here?
Answer: 52.8%
